Data published in US20080027129A1 (L'OREAL, priority 2006, published 2008).
Where two headings read alike, the source gives them in different places.

Experiments:
[1] = system: normal human melanocytes (NHM); experiment: reactive oxygen species (ROS) generated by an H2O2 stress in cultured normal human melanocytes; assay type: cell-based; settings: NHM pretreated 12 h/18 h with compound, H2DCFDA 10 μM, H2O2 250 μM, read after 15 minutes; FIG. 1
Procedure: Protocol for measuring the reactive oxygen species (ROS) generated by an H2O2 stress in cultured normal human melanocytes (NHM)
The normal human melanocytes (NHMs) were inoculated at D0 at the density of 4×10^4 cells/cm^2. […] After 20 minutes, the H2DCFDA solution was replaced with the culture medium. The NHMs were left for 30 minutes before adding the H2O2 solution (250 μM). The fluorescence was measured after 15 minutes in a fluoroscan (excitation: 485 nm, emission: 538 nm).
The compounds studied were used depending on their properties (concentration, preincubation time). N-Acetylcysteine (A9165-Sigma) was used as a reference molecule. The melanocytes were pretreated, 12 h/18 h at 37° C., with the compound studied in the culture medium, before being brought into contact for 20 minutes with H2DCFDA (10 μM in PBS). The H2DCFDA solution was then replaced with the culture medium containing the active agent studied. After incubating for 30 minutes the oxidative stress was induced by addition of 250 μM of H2O2 in the culture medium. The fluorescence was measured after 15 minutes in a fluoroscan (excitation: 485 nm, emission: 538 nm).
The results represent the crude fluorescence data, from which the auto-fluorescence values of “blank” cells, expressed in fluorescence units (fu), obtained during a representative experiment, have been deducted, see FIG. 1.

[2] = system: normal human melanocytes (NHMs); experiment: viability of cultured normal human melanocytes after a dopamine stress (Alamar Blue); assay type: cell-based; design: cell viability after dopamine stress: scale not given here; settings: for cell viability after dopamine stress / viability at 200 µM: D3, Alamar Blue; for viability at 200 µM: Homo sapiens, Melanocyte, compound 200 μM, read-out: cell viability after dopamine stress
Procedure: 1-C-1. Effect of 3H-1,2-dithiole-3-thione (D3T) on the Viability of Cultured Normal Human Melanocytes (NHMs) After a Dopamine Stress:
The normal human melanocytes (NHMs) were inoculated at DO at the density of 1×10^4 cells/cm^2. After adhesion of the cells (3 h), the active agent studied was added to the culture medium. After 2 hours, the dopamine was added to the culture medium to begin the stress. At D3, the cell viability was measured using Alamar Blue (UP669413 UPTIMA, Interchim) according to the instructions of the supplier.

GSH = settings: described in the literature; cited from earlier work

anethole dithiolethione [ADT]
reactive oxygen species (ROS) induced by H2O2, fluorescence [1]: decrease of the reactive oxygen species | survival of the cells under dopamine stress compared with the reference compound ([2]; FIG. 3, versus N-acetylcysteine): increases the survival of the cells with a better efficiency than N-acetylcysteine | cell viability after dopamine stress ([2]; compound 2 μM, dopamine 0.00 μM): 100.00 | cell viability after dopamine stress ([2]; compound 2 μM, dopamine 20.00 μM): 97.48 | cell viability after dopamine stress ([2]; compound 2 μM, dopamine 40.00 μM): 100.00 | cell viability after dopamine stress ([2]; compound 2 μM, dopamine 60.00 μM): 98.74 | cell viability after dopamine stress ([2]; compound 2 μM, dopamine 70.00 μM): 95.90 | cell viability after dopamine stress ([2]; compound 2 μM, dopamine 80.00 μM): 92.43 | cell viability after dopamine stress ([2]; compound 2 μM, dopamine 90.00 μM): 82.02 | cell viability after dopamine stress ([2]; compound 2 μM, dopamine 100.00 μM): 51.42 | cell viability after dopamine stress ([2]; compound 15 μM, dopamine 0.00 μM): 100.00 | cell viability after dopamine stress ([2]; compound 15 μM, dopamine 20.00 μM): 92.68 | cell viability after dopamine stress ([2]; compound 15 μM, dopamine 40.00 μM): 95.22 | cell viability after dopamine stress ([2]; compound 15 μM, dopamine 60.00 μM): 95.54 | cell viability after dopamine stress ([2]; compound 15 μM, dopamine 70.00 μM): 94.90 | cell viability after dopamine stress ([2]; compound 15 μM, dopamine 80.00 μM): 94.90 | cell viability after dopamine stress ([2]; compound 15 μM, dopamine 90.00 μM): 87.58 | cell viability after dopamine stress ([2]; compound 15 μM, dopamine 100.00 μM): 81.21 | level of GSH (GSH): increasing the level of GSH

C[S@@+]([O-])CCCCN=C=S [sulforaphane]
level of GSH (GSH): increasing the level of GSH

C=CCN=C=S [allyl isothiocyanate]
level of GSH (GSH): increasing the level of GSH

S=c1ccss1 [D3T, 3H-1,2-dithiole-3-thione]
reactive oxygen species (ROS) induced by H2O2, fluorescence [1]: decrease of the reactive oxygen species | level of GSH (GSH): increasing the level of GSH

S=C=NCCc1ccccc1 [phenethyl isothiocyanate]
level of GSH (GSH): increasing the level of GSH

CC(=O)N[C@@H](CS)C(=O)O [NAC, N-Acetylcysteine, reference compound]
viability at 200 µM ([2]; dopamine 0.00 μM): 100% | viability at 200 µM ([2]; dopamine 20.00 μM): 102% | viability at 200 µM ([2]; dopamine 40.00 μM): 102% | viability at 200 µM ([2]; dopamine 60.00 μM): 99.7% | viability at 200 µM ([2]; dopamine 70.00 μM): 95.7% | viability at 200 µM ([2]; dopamine 80.00 μM): 89.4% | viability at 200 µM ([2]; dopamine 90.00 μM): 77.7% | viability at 200 µM ([2]; dopamine 100.00 μM): 23.8%
